Calls of active or inactive are those of the source. The calls are words filed in the database; no cut-off is given here.
Legend:
[1] = biological target: Heat shock protein HSP 90-alpha (Homo sapiens, UniProt P07900); assay: Binding affinity to CM5 sensor chip immobilized human HSP90alpha assessed as dissociation constant by SPR analysis
[2] = biological target: HSP90/Cyclin-dependent kinase 4 (Mus musculus, UniProt P07901+P11499+P30285); assay: HEMTAC activity at HSP90/CDK4 in mouse B16-F10 cells assessed as induction of CDK4 degradation incubated for 24 hrs by Western blot analysis; type: cell-based
[3] = biological target: HSP90/Cyclin-dependent kinase 4 (Mus musculus) (UniProt P30285+P07901+P11499); assay: HEMTAC activity at HSP90/CDK4 in mouse B16-F10 cells assessed as induction of CDK4 degradation at 0.5 uM measured after 12 hrs by Western blot analysis; type: cell-based
[4] = biological target: T1, HSP90/Cyclin-dependent kinase 6 (Mus musculus) (UniProt P07901+Q64261+P11499); assay: HEMTAC activity at HSP90/CDK6 in mouse B16-F10 cells assessed as induction of […] degradation at 0.5 uM measured after 12 hrs by Western blot analysis; type: cell-based
[5] = biological target: T1, HSP90/Cyclin-dependent kinase 6 (Mus musculus); assay: HEMTAC activity at HSP90/CDK6 in mouse B16-F10 cells assessed as induction of […] degradation at 0.5 uM pretreated with proteasome inhibitor, MG132 for 2 hrs followed by compound addition and measured after 24 hrs by Western blot analysis; type: cell-based
[6] = biological target: T1, HSP90/Cyclin-dependent kinase 6 (Mus musculus); assay: HEMTAC activity at HSP90/CDK6 in mouse B16-F10 cells assessed as induction of CDK6 degradation at 0.1 uM incubated for 24 hrs in presence of palbociclib by Western blot analysis; type: cell-based
A549 = assay: Cytotoxicity against human A549 cells assessed as inhibition of cell growth incubated for 72 hrs by CCK-8 assay; type: functional, cell-based; conditions: A549, 72 h
HFF-1 = assay: Cytotoxicity against human HFF-1 cells assessed as reduction of cell viability incubated for 72 hrs by CCK-8 assay; type: toxicity, cell-based; conditions: hff-1, 72 h
[7] = biological target: T1, HSP90/Cyclin-dependent kinase 6 (Mus musculus); assay: HEMTAC activity at HSP90/CDK6 in mouse B16-F10 cells assessed as reduction in CDK6 protein level at 0.5 uM incubated for 24 hrs by global proteomics analysis; type: cell-based
B16-F10 [8] = assay: Cytotoxicity against mouse B16-F10 cells assessed as inhibition of cell growth incubated for 72 hrs by CCK-8 assay; type: functional, cell-based; conditions: B16-F10, 72 h
B16-F10 [9] = assay: Induction of apoptosis in mouse B16-F10 cells assessed as live cells at 125 nM incubated for 48 hrs by Annexin V-FITC/PI staining based flow cytometry analysis (reference value: 92.85 %); type: functional
B16-F10 [10] = assay: Induction of apoptosis in mouse B16-F10 cells assessed as late apoptotic cells at 125 nM incubated for 48 hrs by Annexin V-FITC/PI staining based flow cytometry analysis (reference value: 1.97%); type: functional
B16-F10 [11] = assay: Induction of apoptosis in mouse B16-F10 cells assessed as dead cells at 125 nM incubated for 48 hrs by Annexin V-FITC/PI staining based flow cytometry analysis (reference value: 1.75%); type: functional
B16-F10 [12] = assay: Induction of apoptosis in mouse B16-F10 cells assessed as live cells at 250 nM incubated for 48 hrs by Annexin V-FITC/PI staining based flow cytometry analysis (reference value: 92.85 %); type: functional
B16-F10 [13] = assay: Induction of apoptosis in mouse B16-F10 cells assessed as early apoptotic cells at 250 nM incubated for 48 hrs by Annexin V-FITC/PI staining based flow cytometry analysis (reference value: 3.42%); type: functional
B16-F10 [14] = assay: Induction of apoptosis in mouse B16-F10 cells assessed as late apoptotic cells at 250 nM incubated for 48 hrs by Annexin V-FITC/PI staining based flow cytometry analysis (reference value: 1.97%); type: functional
B16-F10 [15] = assay: Induction of apoptosis in mouse B16-F10 cells assessed as dead cells at 250 nM incubated for 48 hrs by Annexin V-FITC/PI staining based flow cytometry analysis (reference value: 1.75%); type: functional
B16-F10 [16] = assay: Induction of cell cycle arrest in mouse B16-F10 cells assessed as accumulation of cells at G1 phase at 125 nM incubated for 24 hrs by RNase/PI staining based flow cytometry analysis (reference value: 68.89%); type: functional
B16-F10 [17] = assay: Induction of cell cycle arrest in mouse B16-F10 cells assessed as accumulation of cells at G2 phase at 125 nM incubated for 24 hrs by RNase/PI staining based flow cytometry analysis (reference value: 16.13%); type: functional
B16-F10 [18] = assay: Induction of cell cycle arrest in mouse B16-F10 cells assessed as accumulation of cells at G1 phase at 250 nM incubated for 24 hrs by RNase/PI staining based flow cytometry analysis (reference value: 68.89%); type: functional
B16-F10 [19] = assay: Induction of cell cycle arrest in mouse B16-F10 cells assessed as accumulation of cells at G2 phase at 250 nM incubated for 24 hrs by RNase/PI staining based flow cytometry analysis (reference value: 16.13%); type: functional
B16-F10 [20] = assay: Induction of cell cycle arrest in mouse B16-F10 cells assessed as accumulation of cells at S phase at 250 nM incubated for 24 hrs by RNase/PI staining based flow cytometry analysis (reference value: 12.45%); type: functional
B16-F10 [21] = assay: Anticancer activity against mouse B16-F10 cells xenografted in zebra fish embryos assessed as inhibition of cell growth at 1 uM measured at 6 days post fertilization; type: functional, cell-based; conditions: time 6.0 day
B16-F10 [22] = assay: Inhibition of colony formation in mouse B16-F10 cells at 0.25 to 1 uM incubated for 7 days with media replacement for every 2 days by crystal violet staining based analysis; type: functional, cell-based; conditions: dose 0.25-1 µM, time 7.0 day
B16-F10 [23] = assay: Inhibition of cell migration in mouse B16-F10 cells at 0.25 to 1 uM by wound healing assay; type: functional, cell-based; conditions: dose 0.25-1 µM
[24] = Toxicity in C57BL/6J mouse implanted with mouse B16-F10 cells at 20 to 40 mg/kg, ip administered once daily for 2 weeks and measured every 2 days; type: organism-based; conditions: in vivo, 336 h, dose 20-40 mg/kg
B16-F10 [25] = assay: Anticancer activity against mouse B16-F10 cells implanted in C57BL/6J mouse assessed as reduction in CDK4/6 positive cells in tumor at 20 mg/kg, ip administered once daily for 2 weeks and measured every 2 days by immunohistochemical analysis; type: functional, organism-based
B16-F10 [26] = assay: Anticancer activity against mouse B16-F10 cells implanted in C57BL/6J mouse assessed as increase in necrosis at 20 mg/kg, ip administered once daily for 2 weeks and measured every 2 days by H and E staining based analysis; type: functional, organism-based
Lung = assay: Downregulation of CDK4/6 protein level in lung of C57BL/6J mouse implanted with mouse B16-F10 cells at 20 mg/kg, ip administered once daily for 2 weeks and measured every 2 days by immunohistochemical analysis; type: functional, organism-based
[27] = Toxicity in C57BL/6J mouse implanted with mouse B16-F10 cells assessed as morphological changes in lung at 20 mg/kg, ip administered once daily for 2 weeks and measured every 2 days by H and E staining based analysis; type: organism-based; conditions: in vivo, 336 h

## COc1c(C)cnc(Cn2cc(C#CCCn3cc(CNC(=O)CN4CCN(c5ccc(Nc6ncc7c(C)c(C(C)=O)c(=O)n(C8CCCC8)c7n6)nc5)CC4)nn3)c3c(Cl)nc(N)nc32)c1C
[1]
  Kd: 357 nM
[2]
  EC50: 26 nM
[3]
  Activity: Active
[4]
  Activity: Active
[5]
  Activity: inactive
[6]
  Activity: inactive
A549
  IC50: 860 nM
HFF-1
  Activity: Non-Toxic
[7]
  Activity: Active
B16-F10 [8]
  IC50: 112 nM
B16-F10 [9]
  Activity: 72.27%
B16-F10 [10]
  Activity: 11.55%
B16-F10 [11]
  Activity: 1.77%
B16-F10 [12]
  Activity: 62.24%
B16-F10 [13]
  Activity: 20.11%
B16-F10 [14]
  Activity: 15.1%
B16-F10 [15]
  Activity: 2.55%
B16-F10 [16]
  Activity: 74.01%
B16-F10 [17]
  Activity: 18.05%
B16-F10 [18]
  Activity: 81.26%
B16-F10 [19]
  Activity: 16.12%
B16-F10 [20]
  Activity: 2.08%
B16-F10 [21]
  inhibition: Active
B16-F10 [22]
  inhibition: Active
B16-F10 [23]
  inhibition: Active
[24]
  Activity: Non-Toxic
B16-F10 [25]
  Activity: Active
B16-F10 [26]
  Activity: Active
Lung
  Activity: inactive
[27]
  Activity: Non-Toxic

— ChEMBL document CHEMBL5316290, “Targeted Protein Degradation Induced by HEMTACs Based on HSP90” (J Med Chem, 2023)
